How the values were obtained:
[1] = target: h-CA II (Homo sapiens, UniProt P00918); test: stopped-flow CO2 hydrase assay, h-CA II
[2] = target: h-CA XII (Homo sapiens, UniProt O43570); test: stopped-flow CO2 hydrase assay, h-CA XII
[3] = target: h-CA IX (Homo sapiens, UniProt Q16790); test: stopped-flow CO2 hydrase assay, h-CA IX
[4] = target: h-CA I (Homo sapiens, UniProt P00915); test: stopped-flow CO2 hydrase assay, h-CA I
[5] = system: normal bronchial epithelial cells (BEAS-2B); test: cell viability (MTT assay), BEAS-2B; type: cell-based, human; conditions: Homo sapiens, BEAS-2B, 48 h exposure, nonlinear regression, predictive estimates
Protocol: Human bronchial epithelial (BEAS-2B; CRL-3588) and human lung carcinoma (A549; CCL-185) cell lines were obtained from ATCC®. BEAS and A549 cells were maintained in complete RPMI 1640 (Merck, Darmstadt, Germany) at 37 °C and 5% CO2. The medium was supplemented with 10% heat-inactivated fetal bovine serum (FBS), 1% penicillin/streptomycin and 1% sodium pyruvate.
Cells were seeded at different densities according to the different experimental techniques performed (MTT assay and cell cycle analysis) and left to adhere for 24 h. Next, the medium was removed, and cells were treated with tested compounds, dissolved in dimethyl sulfoxide (DMSO) to achieve concentrations ranging from 0 µM (untreated control = CTRL) to 150 µM. The final DMSO concentration was kept below 0.3%. Cell viability was evaluated at up to 72 h post-treatment. Images were acquired 48 h after treatments by means of a light phase-contrast microscope equipped with a camera (Leica). Images were acquired and analyzed by the Leica Application Suite LAS EZ version 3.4 (Leica, Wetzlar, Germany).
BEAS and A549 cells were seeded in 96-well culture-treated plates (Falcon®, Corning Incorporated, Brooklyn, NY, USA) at a density of 0.5 × 10^4 cells/well. Untreated cells were set as the experimental control, representing 100% of cell viability. Exposure times varied from 24 up to 72 h. At the established time points (24, 48 and 72 h), the exposure medium was replaced with fresh medium containing 0.5 mg/mL 3-(4,5-dimethylthiazol-2-yl)-2,5-diphenyltetrazolium bromide (MTT) (Merck, Darmstadt, Germany) and processed as previously reported. The optical density in each well was measured at a wavelength of 540 nm using a spectrophotometer (Thermo Fisher Scientific, Waltham, MA, USA). Each experiment was performed in triplicate per experimental conditions (n = 3).

Sequence of h-CA I (P00915 whole entry): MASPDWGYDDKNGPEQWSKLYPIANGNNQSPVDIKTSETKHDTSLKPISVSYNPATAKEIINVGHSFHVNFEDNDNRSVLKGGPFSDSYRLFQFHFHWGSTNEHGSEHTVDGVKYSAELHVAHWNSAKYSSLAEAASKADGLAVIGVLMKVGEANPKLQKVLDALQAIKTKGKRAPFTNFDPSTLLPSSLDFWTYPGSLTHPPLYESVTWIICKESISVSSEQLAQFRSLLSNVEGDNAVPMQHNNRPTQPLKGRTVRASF
Sequence of h-CA XII (O43570 25-354): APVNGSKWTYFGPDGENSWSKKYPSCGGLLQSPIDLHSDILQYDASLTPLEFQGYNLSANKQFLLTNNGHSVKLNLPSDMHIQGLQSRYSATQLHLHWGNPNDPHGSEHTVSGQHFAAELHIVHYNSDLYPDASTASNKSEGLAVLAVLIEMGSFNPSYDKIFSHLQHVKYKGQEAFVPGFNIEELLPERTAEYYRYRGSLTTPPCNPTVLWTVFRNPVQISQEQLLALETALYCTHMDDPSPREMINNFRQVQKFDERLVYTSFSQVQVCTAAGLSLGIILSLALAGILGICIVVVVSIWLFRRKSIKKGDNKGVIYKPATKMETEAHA

| SMILES | Ki [1] [µM] | Ki [2] [µM] | Ki [3] [µM] | Ki [4] [µM] | IC50 [5] [µM] |
| --- | --- | --- | --- | --- | --- |
| O=C(NCc1cccc([N+](=O)[O-])c1)c1cc2ccc(O)cc2oc1=O [Compound 12, 7-Hydroxy-N-(3-Nitrobenzyl)-2-Oxo-2H-Chromene-3-Carboxamide] | > 100 | 55.2 | 64.7 | > 100 |  |
| O=C(NCc1ccc(C(F)(F)F)cc1)c1cc2ccc(O)cc2oc1=O [Compound 17, 7-Hydroxy-2-Oxo-N-(4-(Trifluoromethyl)benzyl)-2H-Chromene-3-Carboxamide] | > 100 | 54.1 | 83.7 | > 100 |  |
| Cc1ccc(N2CCN(C(=O)c3cc4ccc(O)cc4oc3=O)CC2)cc1 [Compound 34, 7-Hydroxy-3-(4-(p-tolyl)piperazine-1-Carbonyl)-2H-Chromen-2-One] | > 100 | 56 | 83.2 | > 100 |  |
| O=C(NCc1cccc(C(F)(F)F)c1)c1cc2ccc(O)cc2oc1=O [Compound 16, 7-Hydroxy-2-Oxo-N-(3-(Trifluoromethyl)benzyl)-2H-Chromene-3-Carboxamide] | > 100 | 64.4 | 77.1 | > 100 |  |
| Cc1cccc(N2CCN(C(=O)c3cc4ccc(O)cc4oc3=O)CC2)c1 [Compound 33, 7-Hydroxy-3-(4-(m-tolyl)piperazine-1-Carbonyl)-2H-Chromen-2-One] | > 100 | 40.5 | 89.3 | > 100 |  |
| O=C(NCCc1ccc(F)cc1)c1cc2ccc(O)cc2oc1=O [Compound 28, N-(4-Fluorophenethyl)-7-Hydroxy-2-Oxo-2H-Chromene-3-Carboxamide] | > 100 | 66.9 | 80.4 | > 100 |  |
| O=C(c1cc2ccc(O)cc2oc1=O)N1CCN(Cc2ccccc2)CC1 [Compound 31, 3-(4-Benzylpiperazine-1-Carbonyl)-7-Hydroxy-2H-Chromen-2-One] | > 100 | 59.5 | 84.1 | > 100 |  |
| O=C(NCc1ccccc1C(F)(F)F)c1cc2ccc(O)cc2oc1=O [Compound 15, 7-Hydroxy-2-Oxo-N-(2-(Trifluoromethyl)benzyl)-2H-Chromene-3-Carboxamide] | > 100 | 31.5 | 50 | > 100 |  |
| Cc1ccc(N2CCN(C(=O)c3cc4ccc(O)cc4oc3=O)CC2)c(C)c1 [Compound 36, 3-(4-(2,4-Dimethylphenyl)piperazine-1-Carbonyl)-7-Hydroxy-2H-Chromen-2-One] | > 100 | 69.7 | 78.1 | > 100 |  |
| COc1ccccc1CNC(=O)c1cc2ccc(O)cc2oc1=O [Compound 8, 7-Hydroxy-N-(2-Methoxybenzyl)-2-Oxo-2H-Chromene-3-Carboxamide] | > 100 | 70.2 | 77.4 | > 100 |  |
| COc1cccc(N2CCN(C(=O)c3cc4ccc(O)cc4oc3=O)CC2)c1 [Compound 43, 7-Hydroxy-3-(4-(3-Methoxyphenyl)piperazine-1-Carbonyl)-2H-Chromen-2-One] | > 100 | 79.9 | 40.4 | > 100 |  |
| COc1ccc(CCNC(=O)c2cc3ccc(O)cc3oc2=O)cc1 [Compound 26, 7-Hydroxy-N-(4-Methoxyphenethyl)-2-Oxo-2H-Chromene-3-Carboxamide] | > 100 | 57.7 | 80.8 | > 100 |  |
| O=C(NCc1ccc(Br)cc1)c1cc2ccc(O)cc2oc1=O [Compound 18, N-(4-Bromobenzyl)-7-Hydroxy-2-Oxo-2H-Chromene-3-Carboxamide] | > 100 | 26.1 | 60.7 | > 100 |  |
| COc1cccc(CNC(=O)c2cc3ccc(O)cc3oc2=O)c1 [Compound 10, 7-Hydroxy-N-(3-Methoxybenzyl)-2-Oxo-2H-Chromene-3-Carboxamide] | > 100 | 73.1 | 63.1 | > 100 |  |
| Cc1cccc(N2CCN(C(=O)c3cc4ccc(O)cc4oc3=O)CC2)c1C [Compound 35, 3-(4-(2,3-Dimethylphenyl)piperazine-1-Carbonyl)-7-Hydroxy-2H-Chromen-2-One] | > 100 | 41.4 | 82.2 | > 100 |  |
| O=C(c1cc2ccc(O)cc2oc1=O)N1CCN(c2cccc([N+](=O)[O-])c2)CC1 [Compound 41, 7-Hydroxy-3-(4-(3-Nitrophenyl)piperazine-1-Carbonyl)-2H-Chromen-2-One] | > 100 | 47.5 | 25.4 | > 100 |  |
| Cc1cc(C)cc(N2CCN(C(=O)c3cc4ccc(O)cc4oc3=O)CC2)c1 [Compound 39, 3-(4-(3,5-Dimethylphenyl)piperazine-1-Carbonyl)-7-Hydroxy-2H-Chromen-2-One] | > 100 | 46.8 | 68.1 | > 100 |  |
| Cc1ccc(C)c(N2CCN(C(=O)c3cc4ccc(O)cc4oc3=O)CC2)c1 [Compound 37, 3-(4-(2,5-Dimethylphenyl)piperazine-1-Carbonyl)-7-Hydroxy-2H-Chromen-2-One] | > 100 | 63.4 | 75.9 | > 100 |  |
| O=C(NCc1ccccc1)c1cc2ccc(O)cc2oc1=O [Compound 4, N-Benzyl-7-Hydroxy-2-Oxo-2H-Chromene-3-Carboxamide] | > 100 | 7.5 | 42.2 | > 100 | 344.9 ± 3.14 |
| O=C(c1cc2ccc(O)cc2oc1=O)N1CCN(c2ccccc2[N+](=O)[O-])CC1 [Compound 40, 7-Hydroxy-3-(4-(2-Nitrophenyl)piperazine-1-Carbonyl)-2H-Chromen-2-One] | > 100 | 63.8 | 85.2 | > 100 |  |
| O=C(NCc1c(Cl)cccc1Cl)c1cc2ccc(O)cc2oc1=O [Compound 24, N-(2,6-Dichlorobenzyl)-7-Hydroxy-2-Oxo-2H-Chromene-3-Carboxamide] | > 100 | 75.1 | 85.6 | > 100 |  |
| O=C(c1cc2ccc(O)cc2oc1=O)N1CCN(c2ccc([N+](=O)[O-])cc2)CC1 [Compound 42, 7-Hydroxy-3-(4-(4-Nitrophenyl)piperazine-1-Carbonyl)-2H-Chromen-2-One] | > 100 | 62.8 | 30.1 | > 100 |  |
| O=C(NCc1ccc([N+](=O)[O-])cc1)c1cc2ccc(O)cc2oc1=O [Compound 11, 7-Hydroxy-N-(4-Nitrobenzyl)-2-Oxo-2H-Chromene-3-Carboxamide] | > 100 | 49.8 | 75.7 | > 100 |  |
| COc1ccc(CCNC(=O)c2cc3ccc(O)cc3oc2=O)cc1OC [Compound 27, N-(3,4-Dimethoxyphenethyl)-7-Hydroxy-2-Oxo-2H-Chromene-3-Carboxamide] | > 100 | 50.8 | 84.7 | > 100 |  |
| O=C(NCc1cccc(F)c1)c1cc2ccc(O)cc2oc1=O [Compound 14, N-(3-Fluorobenzyl)-7-Hydroxy-2-Oxo-2H-Chromene-3-Carboxamide] | > 100 | 57.6 | 73.2 | > 100 |  |
| O=C(NCc1ccc(Cl)cc1)c1cc2ccc(O)cc2oc1=O [Compound 21, N-(4-Chlorobenzyl)-7-Hydroxy-2-Oxo-2H-Chromene-3-Carboxamide] | > 100 | 39.7 | 80.7 | > 100 |  |
| O=C(NCc1cccc(Cl)c1)c1cc2ccc(O)cc2oc1=O [Compound 20, N-(3-Chlorobenzyl)-7-Hydroxy-2-Oxo-2H-Chromene-3-Carboxamide] | > 100 | 42.6 | 33.9 | > 100 |  |
| O=C(NCc1ccc(F)cc1)c1cc2ccc(O)cc2oc1=O [Compound 13, N-(4-Fluorobenzyl)-7-Hydroxy-2-Oxo-2H-Chromene-3-Carboxamide] | > 100 | 70.5 | 86.9 | > 100 |  |
